Experimental data as given in publication PMC5306062, “Pharmacology and toxicology of the novel investigational agent Cantrixil (TRX-E-002-1)” (Cancer Chemotherapy and Pharmacology, 2016).

Columns and labels:
[1] = tested on: Escherichia coli strain WP2uvrA; experiment: Bacterial reverse mutation test, plate assay; type: cell-based; conditions: absence or presence of S9 mix
Procedure: (§1) The assays were performed in compliance with GLP regulations.
(§2) The bacterial reverse mutation test employed Salmonella typhimurium strains TA1535, TA1537, TA98 and TA100, and Escherichia coli strain WP2uvrA in a conventional plate assay, with and without exogenous metabolic activation by a rat liver post-mitochondrial fraction (S9 mix).

[2] = tested on: Salmonella typhimurium strains TA1535, TA1537, TA98 and TA100; experiment: Bacterial reverse mutation test, plate assay; type: cell-based; conditions: absence or presence of S9 mix
Procedure: as §1, §2

CYP3A4 [3] = experiment: CYP induction in human hepatocytes; type: in vitro ADME; conditions: one of three donors
Text: (§3) Potential induction of human drug-metabolizing cytochrome P450 enzymes by TRX-E-002-1 was also investigated in human hepatocytes in vitro (VPT3079/2015). No evidence of CYP1A2 induction was observed.

CYP2B6 = experiment: CYP induction in human hepatocytes; type: in vitro ADME; conditions: one of three donors
Text: as §3

CYP1A2 [4] = experiment: CYP induction in human hepatocytes; type: in vitro ADME
Text: as §3

[5] = tested on: ovarian, prostate and lung cancer cells; experiment: Broad cytotoxic activity; type: cell-based; conditions: Homo sapiens, summary over ovarian
Text: Activity in pancreatic and colorectal cancer cells and glioblastoma cells was more variable (Table 1).

[6] = GLP telemetry cardiovascular study, intraperitoneal injection; type: in vivo, beagle dogs
Procedure: (§4) However, at concentrations of 0.1-10 μM, the drug increased surface expression of the hERG single mutant (hERG-SM), identifying it as a potential blocker of hERG channel activity. […] Potential cardiovascular responses to intraperitoneal injection of TRX-E-002-1 were investigated in a GLP-compliant telemetry study in beagle dogs. Four male dogs received vehicle (20% SBECD) or TRX-E-002-1 (1, 10 or 30 mg/kg) on four separate occasions in a Latin Square design. Blood pressure, heart rate, ECG parameters and body temperatures were continuously recorded from 30 min before dosing until at least 24 h after each dose.

caspases 3/7 and 9 = experiment: Caspase activity in OCSC2 cells; type: cell-based, human
Procedure: The role of caspases and intracellular signalling pathways in the anticancer activity of TRX-E-002-1 was investigated in OCSC2 ovarian cancer stem cells. […] TRX-E-002-1 also modulated phosphorylation of intracellular signalling molecules, with decreased levels of pERK (phosphorylated extracellular signal-regulated kinase) and increased levels of phosphorylated c-Jun (p–c-Jun). Activated p–c-Jun levels increased progressively over the 24-h incubation period in response to both concentrations of TRX-E-002-1 tested. […] Increased p–c-Jun and decreased pERK levels were observed following incubation of OCSC2 cells after only 2-h’ exposure, indicating these changes are one of the earliest effects of TRX-E-002-1 treatment.

[7] = tested on: hERG single mutant (hERG-SM); experiment: Surface expression of hERG single mutant; type: cell-based, human; conditions: 0.1-10 μM
Procedure: as §4

CYP3A4 [8] = target: T1, CYP3A4 (Homo sapiens, UniProt P08684); experiment: Metabolism-dependent CYP inhibition in human hepatic microsomes; type: in vitro ADME
T1 construct: investigated in human hepatic microsomes in vitro; from tissue; host or cells: human hepatic microsomes
Text: (§5) The potential for pharmacokinetic drug interactions resulting from inhibition of drug-metabolizing cytochrome P450 enzymes was investigated in human hepatic microsomes in vitro. TRX-E-002-1 inhibited multiple cytochrome P450 drug-metabolizing enzymes, including CYP2C9, CYP2C8, CYP2C19, CYP2B6, CYP3A4, CYP2D6, CYP2A6 and CYP1A2. […] In particular, the potential interaction between Cantrixil and paclitaxel, a CYP2C9 substrate frequently used in the treatment of ovarian cancer, needs to be considered.

CYP2C8 = target: T2, CYP2C8 (Homo sapiens, UniProt P10632); experiment: as above; type: in vitro ADME
T2 construct: investigated in human hepatic microsomes in vitro; from tissue; host or cells: human hepatic microsomes
Text: as §5

CYP1A2 [9] = target: T3, CYP1A2 (Homo sapiens, UniProt P05177); experiment: as above; type: in vitro ADME
T3 construct: investigated in human hepatic microsomes in vitro; from tissue; host or cells: human hepatic microsomes
Text: as §5

[10] = tested on: mouse lymphoma L5178Y cells; experiment: In vitro mammalian cell mutation assay, thymidine kinase locus; conditions: 3 h with and without S9, 24 h without S9
Procedure: Genotoxicity testing of TRX-E-002-1 was performed in an ICH-compliant test battery (see ICH Guideline S2A), comprising an in vitro bacterial reverse mutation test, an in vitro mammalian cell mutation assay and an in vivo rodent bone marrow micronucleus assay. The assays were performed in compliance with GLP regulations.
The in vitro mammalian cell mutation assay utilised the forward mutation system at the thymidine kinase locus of the mouse lymphoma L5178Y cells using a microtitre cloning technique. TRX-E-002-1 was tested in three experimental conditions: 3-h incubation at 37 °C with and without metabolic activation system (Aroclor-induced rat liver S9 mix), and a 24-h incubation without metabolic activation (i.e. continuous treatment).

[11] = tested on: recurrent ovarian cancer model; experiment: Recurrent ovarian cancer model after paclitaxel (OCSC2-inoculated mice); type: in vivo
Procedure: In vivo, TRX-E-002-1, formulated in 20% SBECD, was active in a disseminated ovarian cancer model and a recurrent ovarian cancer model in which tumour recurrence is investigated following initial treatment of the OCSC2-inoculated mice with paclitaxel. In both models, TRX-E-002-1 inhibited tumour growth following once daily intraperitoneal administration.
In the recurrent ovarian cancer model, once daily intraperitoneal administration of 100 mg/kg TRX-E-002-1 in 20% SBECD for 4 weeks inhibited tumour growth and reduced terminal tumour burden by 77%.

[12] = 100 mg/kg i.p. once daily in 20% SBECD for 4 weeks

T1 sequence (P08684 whole entry): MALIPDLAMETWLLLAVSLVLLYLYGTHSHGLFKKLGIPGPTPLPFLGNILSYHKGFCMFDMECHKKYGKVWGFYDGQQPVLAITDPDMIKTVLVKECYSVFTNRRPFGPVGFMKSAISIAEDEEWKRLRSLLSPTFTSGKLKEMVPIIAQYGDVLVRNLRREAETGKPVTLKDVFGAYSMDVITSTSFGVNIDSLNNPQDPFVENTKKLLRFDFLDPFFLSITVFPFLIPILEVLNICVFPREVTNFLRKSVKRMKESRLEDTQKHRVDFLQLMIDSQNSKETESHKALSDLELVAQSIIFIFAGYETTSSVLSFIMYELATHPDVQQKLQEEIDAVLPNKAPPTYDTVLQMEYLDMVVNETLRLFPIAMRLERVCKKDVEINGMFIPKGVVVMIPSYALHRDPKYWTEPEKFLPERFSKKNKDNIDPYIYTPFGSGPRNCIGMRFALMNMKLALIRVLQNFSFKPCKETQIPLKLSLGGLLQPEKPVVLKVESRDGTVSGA
T2 sequence (P10632 whole entry): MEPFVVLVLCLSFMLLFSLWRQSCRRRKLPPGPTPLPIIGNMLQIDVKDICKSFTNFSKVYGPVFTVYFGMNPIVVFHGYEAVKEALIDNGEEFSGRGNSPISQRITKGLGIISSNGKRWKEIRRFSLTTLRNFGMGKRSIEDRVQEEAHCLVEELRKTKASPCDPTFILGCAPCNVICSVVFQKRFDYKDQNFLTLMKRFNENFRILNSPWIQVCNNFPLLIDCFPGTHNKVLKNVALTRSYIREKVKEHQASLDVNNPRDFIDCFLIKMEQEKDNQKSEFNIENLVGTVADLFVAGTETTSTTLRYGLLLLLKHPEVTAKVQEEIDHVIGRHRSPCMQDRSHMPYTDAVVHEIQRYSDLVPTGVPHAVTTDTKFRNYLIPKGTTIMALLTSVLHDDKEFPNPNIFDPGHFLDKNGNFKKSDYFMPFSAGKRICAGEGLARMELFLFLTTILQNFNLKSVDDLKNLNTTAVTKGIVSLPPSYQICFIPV
T3 sequence (P05177 whole entry): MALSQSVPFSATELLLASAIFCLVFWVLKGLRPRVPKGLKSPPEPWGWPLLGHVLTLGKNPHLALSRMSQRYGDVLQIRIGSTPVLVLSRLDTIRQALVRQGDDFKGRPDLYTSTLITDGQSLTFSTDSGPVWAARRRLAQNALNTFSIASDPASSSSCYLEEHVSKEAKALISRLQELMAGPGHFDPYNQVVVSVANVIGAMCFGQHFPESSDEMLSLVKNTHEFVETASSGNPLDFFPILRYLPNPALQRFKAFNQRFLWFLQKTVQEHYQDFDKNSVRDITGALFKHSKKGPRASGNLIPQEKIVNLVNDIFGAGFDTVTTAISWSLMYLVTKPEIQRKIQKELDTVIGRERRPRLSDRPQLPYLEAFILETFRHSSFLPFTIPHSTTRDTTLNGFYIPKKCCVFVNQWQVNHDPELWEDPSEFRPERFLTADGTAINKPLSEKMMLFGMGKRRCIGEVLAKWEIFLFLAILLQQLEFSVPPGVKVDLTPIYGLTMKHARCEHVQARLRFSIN

Structure (SMILES): COc1cc([C@@H]2COc3c(ccc(O)c3C)[C@@H]2c2ccc(O)cc2)cc(OC)c1O [TRX-E-002-1, (+) cis-4-(para-hydroxyphenyl)-7,4′-dihydroxy-3′,5′-dimethoxy-8-methylisoflavan]
- number of revertant colonies [1]: no significant increases
- number of revertant colonies [2]: no significant increases
- induction of CYP3A4 (CYP3A4 [3]): Equivocal evidence
- induction of CYP2B6 (CYP2B6): Equivocal evidence
- CYP1A2 induction (CYP1A2 [4]): No evidence
- IC50 [5]: ≤ 100 nM
- effect on QTc interval ([6]; 1, 10 or 30 mg/kg i.p., ECG telemetry): no effect
- blood pressure and heart rate ([6]; 10 and/or 30 mg/kg i.p., not considered adverse): slight, transient increases
- activity of caspases 3/7 and 9 (caspases 3/7 and 9): markedly increased
- surface expression of hERG-SM [7]: increased
- metabolism-dependent inhibition (CYP3A4 [8]): observed
- metabolism-dependent inhibition (CYP2C8): observed
- metabolism-dependent inhibition (CYP1A2 [9]): observed
- mutant frequencies compared with control values [10]: did not show statistically significant differences
- reduction of terminal tumour burden [11, 12]: 77%
- tumour growth [11, 12]: inhibited
- efficacy compared with paclitaxel ([11]; paclitaxel 12 mg/kg twice weekly): more effective
